Measurements from patent US20220031654A1, “Standardized Bioflavonoid Composition for Regulation of Homeostasis of Host Defense Mechanism” (priority 2020, published 2022).
“And” between values parts separate entries of the source, which are not always exact repeats. Equal entries are not always repeated.

Assays:
Pseudomonas aeruginosa [1] = test: Hyperoxia plus PA infection, bacterial load in the airways; conditions: RES 50 mg/kg, UP446 250 mg/kg; hyperoxia and PA
Method: To investigate the effects of regulating natural host defense homeostasis, mice were treated with the bioflavonoid composition, UP446, at 250 mg/kg orally for seven days prior to being exposed to >90% oxygen for 48 hours (with continued UP446 treatment) before being inoculated with microbial Pseudomonas aeruginosa (PA).

BAL total protein = test: Hyperoxia plus PA infection, total protein in lung lavage fluid; conditions: RES 50 mg/kg, UP446 250 mg/kg; >90% oxygen 48 hours, 24 hours after PA
Method: To investigate the effects of regulating natural host defense homeostasis, mice were treated with the bioflavonoid composition, UP446, at 250 mg/kg orally for seven days prior to being exposed to >90% oxygen for 48 hours (with continued UP446 treatment) before being inoculated with microbial Pseudomonas aeruginosa (PA). Mice were euthanized 24 hours after bacterial inoculation, the lungs were lavaged, and total protein content was determined from the lung lavage fluid.

HMGB1 = test: Hyperoxia plus PA infection, extracellular HMGB1 in lung lavage fluids; assay type: in vivo, mice; conditions: RES 50 mg/kg, UP446 250 mg/kg
Excerpt: Accumulation of extracellular HMGB1 in the airways can compromise innate immunity, leading to an impaired ability to clear invading pathogens and apoptotic neutrophils. This can subsequently cause acute respiratory tract infections, lung injury and even death (Entezari et al., 2012; Patel et al., 2013). To determine whether UP446-attenuated acute lung injury in bacterially infected mice exposed to hyperoxia is due to its impact on the accumulation of extracellular HMGB1 in the airways, the levels of HMGB1 were measured in the lung lavage fluids. As shown previously, prolonged exposure of these mice to hyperoxia followed by microbial infection increased the accumulation of HMGB1 in the airways. […] This elevation can be reduced by pretreatment with either resveratrol (RES) or UP446. […] This correlates with the significant enhanced ability of UP446 to improve host defense mechanisms against microbial infection in the respiratory system.

Pseudomonas aeruginosa [2] = test: Hyperoxia plus PA infection, bacterial load in lung homogenate; assay type: in vivo, mice; conditions: RES 50 mg/kg, UP446 250 mg/kg; hyperoxia and PA
COX-1 = conditions: (+)-catechin isolated from the bark of Ceiba pentandra; Noreen et al. 1998; read-out: IC50, COX-1 inhibition; cited from earlier work
COX-2 = conditions: commercially available pure (+)-catechin; Noreen et al. 1998; cited from earlier work
[3] = tested on: prostaglandin endoperoxide synthase; conditions: Kalkbrenner et al. 1992; read-out: IC50, inhibition of prostaglandin endoperoxide synthase; cited from earlier work
[4] = tested on: cox-2 gene transcription in human colon cancer DLD-1 cells; conditions: Mutoh et al. 2000, read-out: IC50, suppression of cox-2 gene transcription; cited from earlier work
[5] = tested on: LPS-induced endotoxemia and sepsis; test: LPS-induced sepsis model, survival (UP446 study); assay type: in vivo, CD-1 mice; conditions: UP446 250 mg/kg, Sodium Butyrate 500 mg/kg oral
Method: CD-1 mice and Sprague Dawley rats were purchased from a USDA approved vendor. Eight weeks old male CD-1 mice and SD rats were purchased form Charles River Laboratories, Inc. (Wilmington, Mass.). Animals were acclimated upon arrival and used for the study. They were housed in a temperature-controlled room (71-72° F.) on a 12-hour light-dark cycle and provided with feed and water ad libitum.
This model used survival rate of animals as the end point measurement (Wang et al., 1999). Lipopolysaccharide (LPS) is an integral component of the outer membrane of gram-negative bacteria and a major contributing factor in the initiation of a generalized inflammatory process that may lead to endotoxin shock. It is a state mediated principally by macrophages/monocytes and is attributed to excessive production of several early phase cytokines such as TNF-α, IL-1, IL-6 and gamma interferon (IFN-γ) as well as a late-stage mediator, HMGB1. Following a median lethal dose of LPS (25 mg/kg) administration dissolved in phosphate-buffered saline (PBS; Lifeline, Lot #07641), animals develop endotoxemia and HMGB1 would be detected in the serum at 8 hours and reach to a peak and plateau levels from 16 to 32 hours after LPS. […] In the current study, we monitored the mice for 4 days after LPS injection. […]
The survival rate was calculated as: 100-[(deceased mice/total number of mice)×100]%.

IL-1β = test: LPS-induced acute lung injury, serum IL-1β ELISA; assay type: in vivo, Sprague Dawley rats; conditions: UP446 250 mg/kg; SB 500 mg/kg
Method: The presence of IL-10 in undiluted rat serum was measured using the Rat IL-10 Quantikine ELISA kit from RandD Systems (product #: RLB00) as follows: undiluted serum was added to a microplate coated with IL-1β antibody. […] The washing was repeated, and enzyme substrate was added to the plate.

MIP-2/CINC-3 = test: LPS-induced acute lung injury, lung homogenate MIP-2/CINC-3 ELISA; conditions: UP446 250 mg/kg; SB 500 mg/kg
Method: (§1) In this study, we treated Sprague Dawley rats with the test materials orally for 7 days before model induction with LPS. On the 8th day, an hour after oral treatment, LPS was instilled intratracheally (i.t.) at 10 mg/kg dissolved in 0.1 mL/100 g PBS to each rat. The normal control rats received the same volume i.t. of PBS only.
We sacrificed surviving animals 24 hours after intratracheal LPS administration. At necropsy, the bronchoalveolar lavage (BAL) was collected by intratracheal injection of 1.5 mL PBS into the right lobe of the lung, followed by a gentle aspiration at least 3 times. Pooled, recovered fluid was centrifuged at 1,500 rpm for 10 min at 4° C., and was used to measure cytokines (e.g. IL-6) and pulmonary protein levels. This same right lobe was collected for tissue homogenization from each rat for MIP-2/CINC-3 activity analysis.
The plate was subjected to 5 washes before an enzyme-linked polyclonal CINC-3 was added and allowed to bind for 2 hours. The wells were washed another 5 times before a substrate solution was added to the wells and the enzymatic reaction was allowed to commence for 30 minutes at room temperature protected from light. […] The absorbance of each well was read at 450 nm (with a 580 nm correction) and compared to a standard curve of CINC-3 in order to approximate the amount of CINC-3 in each rat lung homogenate sample.

CRP = conditions: UP446 250 mg/kg; SB 500 mg/kg
Method: as §1
We sacrificed surviving animals 24 hours after intratracheal LPS administration. At necropsy, the bronchoalveolar lavage (BAL) was collected by intratracheal injection of 1.5 mL PBS into the right lobe of the lung, followed by a gentle aspiration at least 3 times. Pooled, recovered fluid was centrifuged at 1,500 rpm for 10 min at 4° C., and was used to measure cytokines (e.g. IL-6) and pulmonary protein levels.
The presence of CRP in rat BAL diluted 1:1,000 was measured using the C-Reactive Protein (PTX1) Rat ELISA kit from Abcam (product #: ab108827) as follows: 1:1,000 diluted BAL was added to a microplate coated with CRP antibody. After 2 hours on a plate shaker at room temperature, CRP in BAL was bound to the plate and the plate was thoroughly washed. […] After developing for 10 minutes at room temperature, a stop solution was added, and the absorbance was read at 450 nm. The concentration of CRP was calculated based on the absorbance readings of an CRP standard curve.

[6] = tested on: LPS-induced endotoxemia and sepsis; test: LPS-induced sepsis model, composition versus its constituents, Colby synergy; assay type: in vivo, CD-1 mice; conditions: for Mortality rate / Survival rate: SB 500, UP894-II 250, RM405 200, RM406 50 mg/kg
Method: On the 8th day, mice were injected intraperitoneally (i.p.) with 25 mg/kg LPS dissolved in PBS at 10 mL/kg. Mice in the UP894-II-treated group received a daily dose of UP894-II at 250 mg/kg. All mice continued to receive the treatment daily for the duration of study, which was completed on the 6th day post LPS injection. Following a median lethal dose of LPS (25 mg/kg) by i.p. administration, animals are expected to develop sepsis within a few hours. If untreated, mice would start to die within 24 hours. Animals were observed hourly. In the current study, we monitored the mice for 6 days after LPS injection.
For the blending of these plant extracts to have unexpected synergy, the observed inhibition needs to be greater than the calculated value.
The survival rate was calculated as: 100-[(deceased mice/total number of mice)×100]%. *p≤0.05

TNF-α = test: LPS-induced acute lung injury, serum TNF-α ELISA; assay type: in vivo, Sprague Dawley rats; conditions: UP446 250 mg/kg; SB 500 mg/kg
Method: The presence of TNF-α in undiluted rat serum was measured using the rat TNF-α Quantikine ELISA kit from RandD Systems (product #: RTA00) as follows: undiluted serum was added to a microplate coated with TNF-α antibody. […] The washing was repeated, and enzyme substrate was added to the plate.

[7] = tested on: LPS-induced acute lung injury; test: LPS-induced acute lung injury, lung histopathology (H&E); assay type: in vivo, Sprague Dawley rats
Method: The severity of lung damage as a result of intratracheal LPS was assessed using HandE-stained lung tissue. The left lobe of the lung was used for the histopathology analysis.

[8] = 144 hr post LPS (end of observation)

SMILES: Oc1ccc(C=Cc2cc(O)cc(O)c2)cc1 [RES, resveratrol]
- bacterial load in the airways (Mean ± SD) (Pseudomonas aeruginosa [1]): 2.4 ± 0.6 ×10^5 CFU/mL
- BAL Total protein content (Mean ± SE) (BAL total protein): 526.0 ± 15.5 µg/mL
- reduction in the level of HMGB1 expression vs vehicle-treated hyperoxia and infection (HMGB1): 74.9%
- HMGB1 expression in airways (Mean ± SD) (HMGB1; densitometry arbitrary unit, hyperoxia and PA): 29.2 ± 16.5 AU
- bacterial load in lung homogenate (Mean ± SD) (Pseudomonas aeruginosa [2]): 0.02 ± 0.02 ×10^5 CFU/mL

SMILES: Oc1cc(O)c2c(c1)OC(c1ccc(O)c(O)c1)C(O)C2 (stereo not shown) [Catechin]
- IC50 (COX-1): 80 µM
- selectivity for COX-2 (COX-2): no selectivity for COX-2
- IC50 [3]: 40 µM
- IC50 [4]: 415 µM

SMILES: CCCC(=O)[O-].[Na+] [Sodium Butyrate]
- Survival Rate (%) after 82 hr [5]: 50%
- reduction in serum IL-1β level (printed IL-10 for UP446) (IL-1β): 65.3%
- reduction in lung homogenate CINC-3 level vs vehicle (MIP-2/CINC-3): 17.7%
- reduction of BAL CRP level relative to vehicle (CRP): moderate reduction in CRP level without statistical significance
- Mortality rate ([6]; 24 hr post LPS): 15.38%
- Survival rate ([6]; 24 hr post LPS): 84.6%
- Mortality rate ([6]; 36 hr post LPS): 46.15%
- Survival rate ([6]; 36 hr post LPS, listed as SB): 53.9% and 53.8%
- Mortality rate ([6]; 48 hr post LPS): 53.85%
- Survival rate ([6]; 48 hr post LPS): 46.2%
- Mortality rate ([6]; 60 hr post LPS): 61.54%
- Survival rate ([6]; 60 hr post LPS): 38.5%
- Mortality rate ([6]; 72 hr post LPS): 61.54%
- Survival rate ([6]; 72 hr post LPS, listed as SB): 38.5%
- Mortality rate ([6]; 96 hr post LPS): 69.23%
- Survival rate ([6]; 96 hr post LPS): 30.8%
- Mortality rate ([6]; 120 hr post LPS): 69.23%
- Survival rate ([6]; 120 hr post LPS): 30.8%
- Mortality rate [6, 8]: 69.23%
- Survival rate [6, 8]: 30.8%
- Mortality rate [6]: 0.00%
- Survival rate [6]: 100.0%
- Deceased (total) ([6]; up to 144 hours post LPS, N=13): 9
- Survived (total) ([6]; up to 144 hours post LPS, N=13): 4
- reduction in serum TNF-α level against the vehicle control (TNF-α): 67.9%
- changes in the histopathology evaluation relative to vehicle ([7]; SB 500 mg/kg, UP446 low-dose 125 mg/kg): minimal changes
- Overall Lung Damage Severity ([7]; Score 0-4, UP446 high dose 250 mg/kg, Sodium Butyrate 500 mg/kg): 3.05 ± 0.42
- Infiltration of PMN cell ([7]; scores 0-4, UP446 high dose 250 mg/kg, Sodium Butyrate 500 mg/kg): 2.75 ± 0.78
